Measurements reported in patent publication US12310975B2, “Modulators of BCL6 proteolysis and associated methods of use” (Arvinas Operations, Inc., priority 2019, dated 2025).
Where two headings read alike, the source gives them in different places.

Molecular target: BCL6 (Homo sapiens (Human), UniProt P41182)
Assay: Immunofluorescence high content imaging of BCL6 degradation in T47D cells
Assay type: cell-based
Details: for DC50: class symbols A-D, read-out: EC50 (nM)*
Procedure, shortened: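 T47D cells were treated for 3 days at 37 °C with 11-point 3-fold dilutions of bifunctional degrader (final top 0.1 or 1 μM). BCL6 was detected by immunofluorescence after PFA fixation, with Hoechst and cell mask counterstains, and imaged at 10×, 4 fields/well.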

A DC50 of 50 to 100 nM was found for CNC(=O)COc1cc2cc(Nc3nc(N4CCC(Cc5cn(CCOCCOCCOCC(=O)N[C@H](C(=O)N6C[C@H](O)C[C@H]6C(=O)N[C@@H](C)c6ccc(-c7scnc7C)cc6)C(C)(C)C)nn5)CC4)ncc3Cl)ccc2n(C)c1=O [compound 123, (2S,4R)-1-((S)-2-(tert-butyl)-14-(4-((1-(5-chloro-4-((1-methyl-3-(2-(methylamino)-2-oxoethoxy)-2-oxo-1,2-dihydroquinolin-6-yl)amino)pyrimidin-2-yl)piperidin-4-yl)methyl)-1H-1,2,3-triazol-1-yl)-4-oxo-6,9,12-trioxa-3-azatetradecanoyl)-4-hydroxy-N-((S)-1-(4-(4-methylthiazol-5-yl)phenyl)ethyl)pyrrolidine-2-carboxamide] in this work.
A DC50 greater than 100 nM was found for CNC(=O)COc1cc2cc(Nc3nc(N4CCC(OCCOCCOCCOc5ccccc5OCCOc5ccc6c(c5)CN(C5CCC(=O)NC5=O)C6=O)CC4)ncc3Cl)ccc2n(C)c1=O (stereo not shown) [compound 110, 2-((6-((5-chloro-2-(4-(2-(2-(2-(2-(2-((2-(2,6-dioxopiperidin-3-yl)-1-oxoisoindolin-5-yl)oxy)ethoxy)phenoxy)ethoxy)ethoxy)ethoxy)piperidin-1-yl)pyrimidin-4-yl)amino)-1-methyl-2-oxo-1,2-dihydroquinolin-3-yl)oxy)-N-methylacetamide] in this work.
An IC50 of no less than 100 nM was found for CNC(=O)COc1cc2cc(Nc3nc(N4CCC(CN5CCC(n6cnc7c(C(=O)NC8CCC(=O)NC8=O)cccc76)CC5)CC4)ncc3Cl)ccc2n(C)c1=O (stereo not shown) [compound 283, 1-[1-({1-[5-chloro-4-({1-methyl-3-[(methylcarbamoyl)methoxy]-2-oxo-1,2-dihydroquinolin-6-yl}amino)pyrimidin-2-yl]piperidin-4-yl}methyl)piperidin-4-yl]-N-(2,6-dioxopiperidin-3-yl)-1H-1,3-benzodiazole-4-carboxamide] in this work.
A Dmax (T47D cells) of less than 50% and an IC50 (T47D cells) of 10 to 50 nM were found for CC[C@@H]1CN(c2ncc(Cl)c(Nc3ccc4c(c3)cc(OCC(=O)NC)c(=O)n4C(C)C)n2)C[C@@H](COc2ccc3c(c2)C(=O)N(C2CCC(=O)NC2=O)C3=O)O1 (stereo partly drawn) [compound 389, 2-{[6-({5-chloro-2-[(2S,6R)-2-({[2-(2,6-dioxopiperidin-3-yl)-1,3-dioxo-2,3-dihydro-1H-isoindol-5-yl]oxy}methyl)-6-ethylmorpholin-4-yl]pyrimidin-4-yl}amino)-2-oxo-1-(propan-2-yl)-1,2-dihydroquinolin-3-yl]oxy}-N-methylacetamide] in this work.
An IC50 of 10 to 50 nM and a Dmax (T47D) of 50 to 70% were found for CONC(=O)COc1cc2cc(Nc3cc(N4CCN(C(C)(C)C5CCN(c6ccc7c(c6)C(=O)N(C6CCC(=O)NC6=O)C7=O)CC5)CC4)ncc3Cl)ccc2n(C)c1=O (stereo not shown) [compound 265, 2-((6-((5-chloro-2-(4-(2-(1-(2-(2,6-dioxopiperidin-3-yl)-1,3-dioxoisoindolin-5-yl)piperidin-4-yl)propan-2-yl)piperazin-1-yl)pyridin-4-yl)amino)-1-methyl-2-oxo-1,2-dihydroquinolin-3-yl)oxy)-N-methoxyacetamide] in this work.
A Dmax (T47D cells) of 50 to 70% and an IC50 (T47D cells) of less than 10 nM were found for CNC(=O)COc1cc2cc(Nc3nc(N4CCC5(CC4)CN(CC4CCN(c6ccc7c(c6)CN(C6CCC(=O)NC6=O)C7=O)CC4)C5)ncc3Cl)ccc2n(C(C)C)c1=O (stereo not shown) [compound 413, 2-{[6-({5-chloro-2-[2-({1-[2-(2,6-dioxopiperidin-3-yl)-1-oxo-2,3-dihydro-1H-isoindol-5-yl]piperidin-4-yl}methyl)-2,7-diazaspiro[3.5]nonan-7-yl]pyrimidin-4-yl}amino)-2-oxo-1-(propan-2-yl)-1,2-dihydroquinolin-3-yl]oxy}-N-methylacetamide] in this work.
A Dmax (T47D cells) of less than 50% and an IC50 (T47D cells) of less than 10 nM were found for CNC(=O)COc1cc2cc(Nc3nc(N4CCN(CC5CCC6(CC5)CN(c5ccc(OC)c7c5C(=O)N(C5CCC(=O)NC5=O)C7=O)C6)CC4)ncc3Cl)ccc2n(C(C)C)c1=O (stereo not shown) [compound 411, 2-{[6-({5-chloro-2-[4-({2-[2-(2,6-dioxopiperidin-3-yl)-7-methoxy-1,3-dioxo-2,3-dihydro-1H-isoindol-4-yl]-2-azaspiro[3.5]nonan-7-yl}methyl)piperazin-1-yl]pyrimidin-4-yl}amino)-2-oxo-1-(propan-2-yl)-1,2-dihydroquinolin-3-yl]oxy}-N-methylacetamide] in this work.
An IC50 of no less than 100 nM and a Dmax (T47D) of less than 50% were found for CC(=O)COc1cc2cc(Nc3nc(N4CCC(N5CCCC5COc5ccc6c(c5)C(=O)N(C5CCC(=O)NC5=O)C6=O)CC4)ncc3Cl)ccc2n(C)c1=O (stereo not shown) [compound 182, 5-((1-(1-(5-chloro-4-((1-methyl-2-oxo-3-(2-oxopropoxy)-1,2-dihydroquinolin-6-yl)amino)pyrimidin-2-yl)piperidin-4-yl)pyrrolidin-2-yl)methoxy)-2-(2,6-dioxopiperidin-3-yl)isoindoline-1,3-dione] in this work.
A DC50 of 50 to 100 nM was found for CNC(=O)COc1cc2cc(Nc3nc(N4CCC(OCCOCCOCCCOCCCOc5ccc6c(c5)CN(C5CCC(=O)NC5=O)C6=O)CC4)ncc3Cl)ccc2n(C)c1=O (stereo not shown) [compound 145, 2-((6-((5-chloro-2-(4-(2-(2-(3-(3-((2-(2,6-dioxopiperidin-3-yl)-1-oxoisoindolin-5-yl)oxy)propoxy)propoxy)ethoxy)ethoxy)piperidin-1-yl)pyrimidin-4-yl)amino)-1-methyl-2-oxo-1,2-dihydroquinolin-3-yl)oxy)-N-methylacetamide] in this work.
A DC50 greater than 100 nM was found for CN1C(=O)CCc2cc(Nc3cc(N4CCC(CN5CCN(c6ccc7c(c6)C(=O)N(C6CCC(=O)NC6=O)C7=O)CC5)CC4)c([N+](=O)[O-])cc3Cl)ccc21 (stereo not shown) [compound 77, 5-(4-((1-(4-chloro-5-((1-methyl-2-oxo-1,2,3,4-tetrahydroquinolin-6-yl)amino)-2-nitrophenyl)piperidin-4-yl)methyl)piperazin-1-yl)-2-(2,6-dioxopiperidin-3-yl)isoindoline-1,3-dione] in this work.
A DC50 of 50 to 100 nM was found for CNC(=O)COc1cc2cc(Nc3nc(N4CCC(OCCOCCOCCOc5ccc6c(c5)C(=O)N(C5CCC(=O)NC5=O)C6=O)CC4)ncc3Cl)ccc2n(C)c1=O (stereo not shown) [compound 52, 2-((6-((5-chloro-2-(4-(2-(2-(2-((2-(2,6-dioxopiperidin-3-yl)-1,3-dioxoisoindolin-5-yl)oxy)ethoxy)ethoxy)ethoxy)piperidin-1-yl)pyrimidin-4-yl)amino)-1-methyl-2-oxo-1,2-dihydroquinolin-3-yl)oxy)-N-methylacetamide] in this work.
An IC50 of 10 to 50 nM and a Dmax (T47D) of less than 50% were found for CC(=O)COc1cc2cc(Nc3nc(N4CCC(OC5CN(c6ccc7c(c6)C(=O)N(C6CCC(=O)NC6=O)C7=O)C5)CC4)ncc3Cl)ccc2n(C)c1=O (stereo not shown) [compound 178, 5-(3-((1-(5-chloro-4-((1-methyl-2-oxo-3-(2-oxopropoxy)-1,2-dihydroquinolin-6-yl)amino)pyrimidin-2-yl)piperidin-4-yl)oxy)azetidin-1-yl)-2-(2,6-dioxopiperidin-3-yl)isoindoline-1,3-dione] in this work.
A Dmax (T47D cells) of 50 to 70% and an IC50 (T47D cells) of less than 10 nM were found for CCCCn1c(=O)c(OCC(=O)NC)cc2cc(Nc3nc(N4CCC[C@H](COc5cccc6c5C(=O)N(C5CCC(=O)NC5=O)C6=O)C4)ncc3Cl)ccc21 (stereo partly drawn) [compound 324, 2-{[1-butyl-6-({5-chloro-2-[(3S)-3-({[2-(2,6-dioxopiperidin-3-yl)-1,3-dioxo-2,3-dihydro-1H-isoindol-4-yl]oxy}methyl)piperidin-1-yl]pyrimidin-4-yl}amino)-2-oxo-1,2-dihydroquinolin-3-yl]oxy}-N-methylacetamide] in this work.
A DC50 greater than 100 nM was found for CNC(=O)COc1cc2cc(Nc3nc(N4CCC(Cc5cn(CCOCCOCCOCCOCCOc6ccc7c(c6)C(=O)N(C6CCC(=O)NC6=O)C7=O)nn5)CC4)ncc3Cl)ccc2n(C)c1=O (stereo not shown) [compound 132, 2-((6-((5-chloro-2-(4-((1-(14-((2-(2,6-dioxopiperidin-3-yl)-1,3-dioxoisoindolin-5-yl)oxy)-3,6,9,12-tetraoxatetradecyl)-1H-1,2,3-triazol-4-yl)methyl)piperidin-1-yl)pyrimidin-4-yl)amino)-1-methyl-2-oxo-1,2-dihydroquinolin-3-yl)oxy)-N-methylacetamide] in this work.
An IC50 of no less than 100 nM was found for CNC(=O)Cc1cc2cc(Nc3nc(N4CCC(CN5CCN(c6ccc7c(c6)C(=O)N(C6CCC(=O)NC6=O)C7=O)CC5)CC4)ncc3Cl)ccc2n(C)c1=O (stereo not shown) [compound 239, 2-(6-((5-chloro-2-(4-((4-(2-(2,6-dioxopiperidin-3-yl)-1,3-dioxoisoindolin-5-yl)piperazin-1-yl)methyl)piperidin-1-yl)pyrimidin-4-yl)amino)-1-methyl-2-oxo-1,2-dihydroquinolin-3-yl)-N-methylacetamide] in this work.
A Dmax (T47D cells) of less than 50% and an IC50 (T47D cells) of less than 10 nM were found for CCn1c(=O)c(OCC(=O)NC)cc2cc(Nc3nc(N4CCC(COC5CCN(c6ccc7c(c6)C(=O)N(C6CCC(=O)NC6=O)C7=O)CC5)CC4)ncc3Cl)ccc21 (stereo not shown) [compound 331, 2-({6-[(5-chloro-2-{4-[({1-[2-(2,6-dioxopiperidin-3-yl)-1,3-dioxo-2,3-dihydro-1H-isoindol-5-yl]piperidin-4-yl}oxy)methyl]piperidin-1-yl}pyrimidin-4-yl)amino]-1-ethyl-2-oxo-1,2-dihydroquinolin-3-yl}oxy)-N-methylacetamide] in this work.
A Dmax (T47D cells) of 50 to 70% and an IC50 (T47D cells) of less than 10 nM were found for CNC(=O)COc1cc2cc(Nc3nc(N4CCN(CCN5CCN(c6cccc7c6C(=O)N(C6CCC(=O)NC6=O)C7=O)CC5)CC4)ncc3Cl)ccc2n(C)c1=O (stereo not shown) [compound 321, 2-{[6-({5-chloro-2-[4-(2-{4-[2-(2,6-dioxopiperidin-3-yl)-1,3-dioxo-2,3-dihydro-1H-isoindol-4-yl]piperazin-1-yl}ethyl)piperazin-1-yl]pyrimidin-4-yl}amino)-1-methyl-2-oxo-1,2-dihydroquinolin-3-yl]oxy}-N-methylacetamide] in this work.
A Dmax (T47D cells) of no less than 70% and an IC50 (T47D cells) of less than 10 nM were found for CNC(=O)COc1cc2cc(Nc3nc(N4CCC(CN5CC6(CCN(c7ccc8c(c7)CN(C7CCC(=O)NC7=O)C8=O)CC6)C5)CC4)ncc3Cl)ccc2n(C(C)C)c1=O (stereo not shown) [compound 436, 2-{[6-({5-chloro-2-[4-({7-[2-(2,6-dioxopiperidin-3-yl)-1-oxo-2,3-dihydro-1H-isoindol-5-yl]-2,7-diazaspiro[3.5]nonan-2-yl}methyl)piperidin-1-yl]pyrimidin-4-yl}amino)-2-oxo-1-(propan-2-yl)-1,2-dihydroquinolin-3-yl]oxy}-N-methylacetamide] in this work.
